Test results: patent publication US11230534B2, “KDM1A inhibitors for the treatment of disease” (Imago Biosciences, Inc., priority 2015, dated 2022)

Assays:
Format in all cases: physicochemical
[1] = Storage at elevated temperature and humidity (40° C./75% RH, 25° C./95-97% RH; XRPD, HPLC); settings: for Storage at 40° C. and 75% RH and 25° C. and 95% RH / exposure to humidity (form, purity): scaled-up salts; for change of form under temperature and humidity conditions: conclusion
Protocol: Example 1 was dissolved in solvent (240 mg in 2.4 mL, 10 volumes) to form stock solutions and then dispensed into vials (400 μL/˜40 mg per vial). The solutions were treated with 1 equivalent of counterions (for hydrochloric acid (HCl), sulfuric acid (H2SO4 or “SO4”), methanesulfonic acid (mesylate or “MSA”), phosphoric acid (H3PO4 or “PHOA”), and L-tartaric acid (TAR), 77 μL for 1M; for fumaric acid (FUA), 154 μL for 0.5M) using stock solutions. The solutions/suspensions were then cooled down to 0° C. at 0.2° C./min and stirred at 0° C. overnight. The resulting solids were analyzed by XRPD and those that were amorphous or poorly crystalline were then matured for 5 days. If after cooling to 0° C. a clear solution or gum was obtained, the mother liquors were removed from the vials, split in two and anti-solvent (MTBE or heptane, 400 μl) added to each of the aliquots. After anti-solvent addition, the samples were matured for 5 days. After maturation, clear solutions and gums were allowed to evaporate at ambient conditions. Suspensions were filtered, air-dried and characterized by XRPD. Any resulting crystalline solids were characterized by high resolution XRPD, 1H NMR, HPLC and one week storage at 40° C. and 75% RH.
Example 1 was dissolved in methyethyl ketone (MEK) or acetonitrile (MeCN) (20 mg in 200 μl, 10 vol) at ambient conditions. The solutions were then heated to 50° C., treated with 1.1 or 2.1 eq of acid and stirred at this temperature for 1 hour. The resulting solutions/suspensions were then cooled down to 5° C. at 0.1° C./min and held overnight. Any solids obtained were analyzed by XRPD and those that were amorphous or poorly crystalline were then matured between 50° C./ambient on an 8-hour cycle. Any clear solutions were left to evaporate slowly at ambient conditions. If the samples evaporated to form gums, these were dissolved in IPA (10 vol, 200 μL) and then matured. Any solutions with gums present were also matured between 50° C./ambient on an 8 hour cycle. Any resulting crystalline solids were characterized by high resolution XRPD, NMR, HPLC, IC (for inorganic counter-ions) and one week storage at 40° C. and 75% RH.
In the first experiment, Example 1 was dissolved in MEK or MeCN (100 mg in 1 mL, 10 vol) at ambient conditions. The solutions were then heated to 50° C., treated with 2.1 eq of p-toluene sulfonic acid monohydrate (1M in THF, 405 μL) and stirred constant temperature for 1 hour. The resulting suspensions were then cooled down to 5° C. at 0.1° C./min overnight. Any solids obtained were analyzed by XRPD and those that were amorphous or weakly crystalline were then matured between 50° C./ambient on an 8-hour cycle for 7 days. Any resulting crystalline solids were characterized by high resolution XRPD, ^1H NMR, HPLC, TGA, DSC and one week storage at 40° C. and 75% RH. […] However, after further maturation to try and improve the crystallinity, both tosylate salts were consistent with pTSA Form 2 by XRPD. […]
(§1) A preliminary polymorphism assessment was carried out on the three most crystalline salt forms, the mono tartrate (TAR Form 1), mono oxalate (OXA Form 1), and bis tosylate (pTSA Form 2). Each salt was treated with the relevant solvent (10 vol, 30 mg in 300 μL) at 25° C. The samples were stirred for 10 minutes and then heated to 50° C. for 1 hour. The resulting suspensions were matured for 24 hours and any resulting solutions were allowed to evaporate slowly. After maturation or evaporation, the solids were filtered and air-dried before analysis by XRPD.
Amorphous bis tosylate was suspended in the solvent system below (30 mg in 150 μl) at ambient conditions. The suspensions were shaken in the maturation chamber between ambient and 50° C. for 19 h (8 h cycles), then allowed to stand at ambient conditions for 10 min. An aliquot of the solid was air dried and analyzed by XRPD and then placed for 1 week at 40° C./75% RH and re-analyzed. […]

[2] = Gravimetric Vapour Sorption (GVS); settings: for GVS water uptake: full cycle, 25° C.; for hygroscopicity: conclusion
Protocol: Sorption isotherms were obtained using a SMS DVS Intrinsic moisture sorption analyzer, controlled by DVS Intrinsic Control software v1.0.1.2 (or v 1.0.1.3). The sample temperature was maintained at 25° C. by the instrument controls. The humidity was controlled by mixing streams of dry and wet nitrogen, with a total flow rate of 200 mL/min The relative humidity was measured by a calibrated Rotronic probe (dynamic range of 1.0-100% RH), located near the sample. The weight change, (mass relaxation) of the sample as a function of % RH was constantly monitored by the microbalance (accuracy ±0.005 mg).
Typically 5-20 mg of sample was placed in a tared mesh stainless steel basket under ambient conditions. The sample was loaded and unloaded at 40% RH and 25° C. (typical room conditions). A moisture sorption isotherm was performed as outlined below (2 scans giving 1 complete cycle). The standard isotherm was performed at 25° C. at 10% RH intervals over a 0-90% RH range. Data analysis was carried out using Microsoft Excel using DVS Analysis Suite v6.2 (or 6.1 or 6.0).

[3] = Variable temperature XRPD (VT-XRPD)
Protocol: Samples run under ambient conditions were prepared as flat plate specimens using powder as received without grinding. Approximately 1-2 mg of the sample was lightly pressed on a glass slide to obtain a flat surface. Samples run under non-ambient conditions were mounted on a silicon wafer with heat-conducting compound. The sample was then heated to the appropriate temperature at 20° C./min and subsequently held isothermally for 1 minute before data collection was initiated.

[4] = Polymorphism assessment (slurry, maturation, evaporation; XRPD); settings: 10 solvents, maturation 24 hours
Protocol: as §1
Amorphous bis tosylate was suspended in the solvent system below (30 mg in 150 μl) at ambient conditions. The suspensions were shaken in the maturation chamber between ambient and 50° C. for 19 h (8 h cycles), then allowed to stand at ambient conditions for 10 min. An aliquot of the solid was air dried and analyzed by XRPD and then placed for 1 week at 40° C./75% RH and re-analyzed. If solutions were recovered, the solvents were allowed to evaporate at ambient conditions and the residues were initially analyzed by XRPD.
(8 h cycles). After 4 days the solids were filtered and air dried. Solids obtained were initially analyzed by XRPD. Maturation in n-heptane, diethyl ether, ethyl acetate, isopropyl acetate, methylisobutyl ketone, 2-propanol, methylethyl ketone, acetone, tert-butylmethyl ether, cyclohexane, 1,4-dioxane, toluene, chloroform, 1,2-dimethoxyethane, tetrahydrofuran, acetonitrile, nitromethane, and 2-propanol:water 95:5 yielded filtered solids of Form 2.
Supernatants from the maturation experiments and solutions from cooling were allowed to slowly evaporate at ambient conditions. The residues were analyzed by XRPD. Slow evaporation from the following supernatants yielded: dimethyl sulfoxide, oil; water, oil; N,N-dimethylformamide, gum; N-methylpyrrolidone, oil; tetrahydrofuran:water 95:5, gum; and acetone:water 95:5 gum. Solutions obtained after the solubility assessment were placed in a fridge (4° C.) for 2 days and in a freezer (−20° C.) for another 2 days. No solids were recovered. […]

[5] = Chemical stability by HPLC purity re-test / degradation; settings: for Initial Purity: HPLC 1-24 hours post-synthesis
Protocol: Various lots of Example 1 were analyzed by HPLC shortly after synthesis (analysis from 1-24 hours post-synthesis) and re-tested for purity a unit of time later.
Purity analysis was performed on an Agilent HP1100 series system equipped with a diode array detector and using ChemStation software vB.04.03 using one of the methods detailed below: […]

Row | Molecule | chemical stability relative to free form ([1]; limited stability studies) | Storage at 40° C. and 75% RH and 25° C. and 95% RH / exposure to humidity (form, purity) [1] | form by XRPD post GVS [2] | GVS water uptake [2] | temperature up to which crystalline form is unchanged (VT-XRPD) [3] | change in crystalline form in polymorphism assessment [4] | loss in purity on storage ([1]; 40° C. and 75% RH) | change of form under temperature and humidity conditions [1] | Storage at 40° C. and 75% RH (form by XRPD) ([1]; one week) | hygroscopicity [2] | Re-Test Purity ([5]; Lot 1, free base, 49 days between tests) | Initial Purity ([5]; Lot 1, free base) | Re-Test Purity ([5]; Lot 2, free base, 16 days between tests) | Initial Purity ([5]; Lot 2, free base) | stability of free base form ([5]; ambient conditions) | behaviour of free base form at high humidity ([1]; high humidity)
1 | tosylate | improved chemical stability over the free form | no changes in the form or purity | No change in form was observed | ~5 % w/w | 170 °C | no change in crystalline form was noted in 9 | – | – | – | – | – | – | – | – | – | –
2 | O=C(O)C(O)C(O)C(=O)O (stereo not drawn) [tartrate] | – | changes in crystallinity and form | decreased crystallinity and a change in form | ~30 % w/w | – | five of the tartrate samples changed in form | > 30% | change under both temperature and humidity conditions | no change in form was observed | highly hygroscopic | – | – | – | – | – | –
3 | CN1CCN(C(=O)C(CN[C@@H]2C[C@H]2c2ccc(F)cc2)NC(=O)c2ccc(-n3ccnn3)cc2)CC1 (stereo partly drawn) [Example 1, N-[3-[[(1R,2S)-2-(4-Fluorophenyl)cyclopropyl]amino]-1-(4-methylpiperazin-1-yl)-1-oxopropan-2-yl]-4-(1H-1,2,3-triazol-1-yl)benzamide] | – | – | – | – | – | – | – | – | – | – | 82% | 93% | 72% | 81% | degrades at ambient conditions over time | deliquesces when subjected to high humidity
4 | oxalate | – | changed the form of the material to OXA Form 2 | change in form to OXA Form 2 | ~12 % w/w | 140 °C | only one change in form was observed | – | changed form under humidity, but not temperature conditions | – | hygroscopic | – | – | – | – | – | –
